Assay results as given in patent US10351575B2, “Bicyclic urea, thiourea, guanidine and cyanoguanidine compounds useful for the treatment of pain” (Array BioPharma Inc., priority 2012, dated 2019).

Legend:
Experiment in all cases: KinaseProfiler off-target kinase profiling
Assay type in all cases: biochemical
Details in all cases: 10 μM, ATP near Km
[1] = target: Abl-P (Homo sapiens (Human), UniProt P00519)
In short: (§1)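 ATP was held near each kinase's Km while compound was present at 10 μM. Runs were done twice, and values are the average percent of control.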

[2] = target: BrSK1 (Homo sapiens (Human), UniProt Q8TDC3)
In short: as §1

[3] = target: BrSK2 (Homo sapiens (Human), UniProt Q8IWQ3)
In short: as §1

[4] = target: CAMK1d (Homo sapiens (Human), UniProt Q8IU85)
In short: as §1

[5] = target: CAMK2b (Homo sapiens (Human), UniProt Q13554)
In short: as §1

[6] = target: CDK2/cyclinA (Homo sapiens (Human), UniProt P24941)
In short: as §1

[7] = target: EphB3 (Homo sapiens (Human), UniProt P54753)
In short: as §1

[8] = target: FGFR2 (Homo sapiens (Human), UniProt P21802)
In short: as §1

[9] = target: Fms (Homo sapiens (Human), UniProt P07333)
In short: as §1

[10] = target: GSK3beta (Homo sapiens (Human), UniProt P49841)
In short: as §1

[11] = target: IGF-1R Activated (Homo sapiens (Human), UniProt P08069)
In short: as §1

[12] = target: IR (Homo sapiens (Human), UniProt P06213)
In short: as §1

[13] = target: IRAK1 (Homo sapiens (Human), UniProt P51617)
In short: as §1

[14] = target: JAK2 (Homo sapiens (Human), UniProt O60674)
In short: as §1

[15] = target: JNK1alpha1 (Homo sapiens (Human), UniProt P45983)
In short: as §1

[16] = target: MAPKAP-K3 (Homo sapiens (Human), UniProt Q16644)
In short: as §1

[17] = target: MARK2 (Homo sapiens (Human), UniProt Q7KZI7)
In short: as §1

[18] = target: MSK1 (Homo sapiens (Human), UniProt O75582)
In short: as §1

[19] = target: MST3 (Homo sapiens (Human), UniProt Q9Y6E0)
In short: as §1

[20] = target: MuSK (Homo sapiens (Human), UniProt O15146)
In short: as §1

[21] = target: PAK2 (Homo sapiens (Human), UniProt Q13177)
In short: as §1

[22] = target: PKAC-alpha (Homo sapiens (Human), UniProt P17612)
In short: as §1

[23] = target: PKCdelta (Homo sapiens (Human), UniProt Q05655)
In short: as §1

[24] = target: PKCeta (Homo sapiens (Human), UniProt P24723)
In short: as §1

[25] = target: PKCgamma (Homo sapiens (Human), UniProt P05129)
In short: as §1

[26] = target: PRKG1alpha (Homo sapiens (Human), UniProt Q13976)
In short: as §1

[27] = target: Ros (Homo sapiens (Human), UniProt P08922)
In short: as §1

[28] = target: SGK1 (Homo sapiens (Human), UniProt O00141)
In short: as §1

[29] = target: Tie2 (Homo sapiens (Human), UniProt Q02763)
In short: as §1

[30] = target: TrkA (Homo sapiens (Human), UniProt P04629)
In short: as §1

[31] = target: WNK2 (Homo sapiens (Human), UniProt Q9Y3S1)
In short: as §1

[32] = target: p38alpha (Homo sapiens (Human), UniProt Q16539)
In short: as §1

[33] = target: p38gamma (Homo sapiens (Human), UniProt P53778)
In short: as §1

[34] = target: p70S6K (Homo sapiens (Human), UniProt P23443)
In short: as §1

Sequence of MARK2 (Q7KZI7 whole entry): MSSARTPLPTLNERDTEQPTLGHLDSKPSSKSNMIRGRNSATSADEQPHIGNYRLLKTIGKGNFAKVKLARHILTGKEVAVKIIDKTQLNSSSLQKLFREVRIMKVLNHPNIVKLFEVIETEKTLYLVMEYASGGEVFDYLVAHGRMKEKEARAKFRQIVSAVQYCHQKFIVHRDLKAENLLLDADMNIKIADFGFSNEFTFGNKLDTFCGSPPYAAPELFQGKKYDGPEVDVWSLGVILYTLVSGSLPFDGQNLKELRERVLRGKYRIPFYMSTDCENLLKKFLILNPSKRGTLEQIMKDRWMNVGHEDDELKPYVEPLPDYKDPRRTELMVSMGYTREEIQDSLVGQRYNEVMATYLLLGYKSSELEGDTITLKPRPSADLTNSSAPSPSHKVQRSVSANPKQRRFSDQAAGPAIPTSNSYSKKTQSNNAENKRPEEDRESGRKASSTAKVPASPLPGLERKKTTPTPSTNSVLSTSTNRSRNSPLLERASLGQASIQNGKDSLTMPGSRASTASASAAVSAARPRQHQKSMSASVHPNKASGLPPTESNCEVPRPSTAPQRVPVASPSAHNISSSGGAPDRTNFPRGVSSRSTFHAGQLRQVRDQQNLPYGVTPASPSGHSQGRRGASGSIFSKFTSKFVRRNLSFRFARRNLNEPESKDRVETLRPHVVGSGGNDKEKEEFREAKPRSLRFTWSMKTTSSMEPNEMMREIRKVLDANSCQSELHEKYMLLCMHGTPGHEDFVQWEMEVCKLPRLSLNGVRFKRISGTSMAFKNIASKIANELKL
Sequence of IGF-1R Activated (P08069 959-1367 limits assumed): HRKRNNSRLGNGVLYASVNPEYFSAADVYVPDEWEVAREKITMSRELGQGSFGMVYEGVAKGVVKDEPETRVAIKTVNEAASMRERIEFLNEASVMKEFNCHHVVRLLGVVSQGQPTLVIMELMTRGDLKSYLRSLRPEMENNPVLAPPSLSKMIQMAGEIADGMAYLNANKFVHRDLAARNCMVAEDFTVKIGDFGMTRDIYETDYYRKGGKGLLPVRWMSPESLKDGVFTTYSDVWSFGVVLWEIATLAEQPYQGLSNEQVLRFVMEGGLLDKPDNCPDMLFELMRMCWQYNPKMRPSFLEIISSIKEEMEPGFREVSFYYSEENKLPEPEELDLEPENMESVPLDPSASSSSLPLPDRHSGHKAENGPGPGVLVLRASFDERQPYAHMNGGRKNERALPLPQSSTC
Sequence of JAK2 (O60674 whole entry): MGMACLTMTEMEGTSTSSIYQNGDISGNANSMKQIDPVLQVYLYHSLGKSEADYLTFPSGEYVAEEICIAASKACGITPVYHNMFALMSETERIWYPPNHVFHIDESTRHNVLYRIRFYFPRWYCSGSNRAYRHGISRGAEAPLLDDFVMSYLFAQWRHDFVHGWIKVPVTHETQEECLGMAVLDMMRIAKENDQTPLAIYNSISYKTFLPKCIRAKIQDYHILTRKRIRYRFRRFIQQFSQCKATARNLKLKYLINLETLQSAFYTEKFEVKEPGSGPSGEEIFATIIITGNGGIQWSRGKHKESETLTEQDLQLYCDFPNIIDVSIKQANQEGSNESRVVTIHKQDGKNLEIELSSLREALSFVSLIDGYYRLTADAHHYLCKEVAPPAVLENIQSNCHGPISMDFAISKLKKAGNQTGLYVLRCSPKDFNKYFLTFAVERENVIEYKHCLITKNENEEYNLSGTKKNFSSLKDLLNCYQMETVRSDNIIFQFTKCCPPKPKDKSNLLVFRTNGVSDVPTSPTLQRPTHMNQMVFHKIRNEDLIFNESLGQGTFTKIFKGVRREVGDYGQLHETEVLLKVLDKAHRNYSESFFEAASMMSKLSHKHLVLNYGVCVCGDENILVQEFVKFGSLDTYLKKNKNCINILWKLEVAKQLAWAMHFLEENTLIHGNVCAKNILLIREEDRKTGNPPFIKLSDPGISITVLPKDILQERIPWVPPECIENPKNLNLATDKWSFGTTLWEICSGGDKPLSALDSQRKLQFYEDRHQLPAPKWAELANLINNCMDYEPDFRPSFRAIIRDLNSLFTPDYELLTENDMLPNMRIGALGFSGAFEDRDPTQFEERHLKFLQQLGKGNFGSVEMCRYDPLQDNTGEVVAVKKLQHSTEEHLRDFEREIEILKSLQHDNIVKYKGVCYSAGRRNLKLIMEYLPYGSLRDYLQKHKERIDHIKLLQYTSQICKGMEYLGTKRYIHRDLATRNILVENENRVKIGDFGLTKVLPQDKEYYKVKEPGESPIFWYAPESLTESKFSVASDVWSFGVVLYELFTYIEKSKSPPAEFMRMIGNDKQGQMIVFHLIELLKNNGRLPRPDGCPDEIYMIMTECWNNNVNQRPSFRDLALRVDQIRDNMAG
Sequence of CAMK1d (Q8IU85 whole entry): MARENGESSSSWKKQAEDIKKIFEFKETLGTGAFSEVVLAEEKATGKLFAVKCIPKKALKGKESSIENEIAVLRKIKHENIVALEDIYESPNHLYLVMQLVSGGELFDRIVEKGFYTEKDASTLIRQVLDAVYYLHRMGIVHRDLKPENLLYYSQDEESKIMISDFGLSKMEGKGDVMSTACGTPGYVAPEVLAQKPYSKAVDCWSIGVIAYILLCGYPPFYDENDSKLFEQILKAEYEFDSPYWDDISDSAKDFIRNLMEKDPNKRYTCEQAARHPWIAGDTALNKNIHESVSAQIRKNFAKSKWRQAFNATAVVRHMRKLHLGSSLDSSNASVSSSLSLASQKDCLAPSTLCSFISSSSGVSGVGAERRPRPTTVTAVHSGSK
Sequence of IR (P06213 28-1382): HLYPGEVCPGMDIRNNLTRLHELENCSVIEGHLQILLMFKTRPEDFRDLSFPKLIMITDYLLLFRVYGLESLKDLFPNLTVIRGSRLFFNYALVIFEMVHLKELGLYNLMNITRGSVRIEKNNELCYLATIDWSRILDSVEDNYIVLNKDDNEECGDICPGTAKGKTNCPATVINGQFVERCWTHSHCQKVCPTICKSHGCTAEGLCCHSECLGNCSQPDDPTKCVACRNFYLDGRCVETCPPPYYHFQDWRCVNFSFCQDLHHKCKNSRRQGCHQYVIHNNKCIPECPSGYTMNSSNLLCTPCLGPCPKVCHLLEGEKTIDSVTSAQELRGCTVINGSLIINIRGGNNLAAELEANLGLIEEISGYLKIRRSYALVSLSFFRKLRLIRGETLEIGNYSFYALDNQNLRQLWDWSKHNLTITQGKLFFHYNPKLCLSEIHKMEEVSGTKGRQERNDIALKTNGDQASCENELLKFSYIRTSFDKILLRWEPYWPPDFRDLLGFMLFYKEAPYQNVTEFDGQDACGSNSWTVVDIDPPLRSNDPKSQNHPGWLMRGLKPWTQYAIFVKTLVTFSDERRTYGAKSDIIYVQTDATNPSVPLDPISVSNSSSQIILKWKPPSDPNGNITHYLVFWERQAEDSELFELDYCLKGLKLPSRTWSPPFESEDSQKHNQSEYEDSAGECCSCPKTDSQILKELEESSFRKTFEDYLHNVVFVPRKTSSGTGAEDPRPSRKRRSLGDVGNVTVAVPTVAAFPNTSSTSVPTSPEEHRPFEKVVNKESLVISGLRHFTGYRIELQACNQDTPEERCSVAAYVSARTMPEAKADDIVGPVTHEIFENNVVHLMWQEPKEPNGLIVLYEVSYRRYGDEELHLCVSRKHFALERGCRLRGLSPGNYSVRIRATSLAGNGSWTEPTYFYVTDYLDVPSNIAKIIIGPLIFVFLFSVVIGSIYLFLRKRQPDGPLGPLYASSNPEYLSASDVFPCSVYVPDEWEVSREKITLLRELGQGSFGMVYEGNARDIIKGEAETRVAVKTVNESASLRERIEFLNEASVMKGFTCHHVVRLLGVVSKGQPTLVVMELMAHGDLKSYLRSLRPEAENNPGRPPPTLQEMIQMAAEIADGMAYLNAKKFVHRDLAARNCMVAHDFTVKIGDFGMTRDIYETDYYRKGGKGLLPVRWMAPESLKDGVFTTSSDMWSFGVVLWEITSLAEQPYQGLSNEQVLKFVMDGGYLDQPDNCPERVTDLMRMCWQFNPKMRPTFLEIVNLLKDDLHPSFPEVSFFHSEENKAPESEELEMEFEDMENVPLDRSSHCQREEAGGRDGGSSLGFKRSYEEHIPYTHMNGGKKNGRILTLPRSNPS
Sequence of PKCeta (P24723 whole entry): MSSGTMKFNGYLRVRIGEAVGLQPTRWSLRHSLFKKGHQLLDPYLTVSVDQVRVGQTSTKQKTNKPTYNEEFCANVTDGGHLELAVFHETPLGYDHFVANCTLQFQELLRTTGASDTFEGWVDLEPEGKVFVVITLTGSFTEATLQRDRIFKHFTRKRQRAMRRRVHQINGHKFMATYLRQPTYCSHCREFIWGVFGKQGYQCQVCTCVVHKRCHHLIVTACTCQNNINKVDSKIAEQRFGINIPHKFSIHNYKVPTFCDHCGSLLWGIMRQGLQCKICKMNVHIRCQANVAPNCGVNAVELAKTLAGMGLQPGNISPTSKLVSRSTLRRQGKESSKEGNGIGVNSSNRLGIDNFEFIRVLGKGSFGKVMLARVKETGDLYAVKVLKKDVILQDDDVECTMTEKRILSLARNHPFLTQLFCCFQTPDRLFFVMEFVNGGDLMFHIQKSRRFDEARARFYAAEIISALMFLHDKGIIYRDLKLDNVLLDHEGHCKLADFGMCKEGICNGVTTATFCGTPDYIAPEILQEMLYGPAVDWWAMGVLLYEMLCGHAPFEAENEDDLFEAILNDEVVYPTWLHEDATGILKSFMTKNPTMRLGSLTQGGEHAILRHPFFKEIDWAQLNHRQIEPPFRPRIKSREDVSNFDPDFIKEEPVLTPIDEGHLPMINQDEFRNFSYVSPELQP

Row | Structure (SMILES) | Avg. POC [1] [POC] | Avg. POC [2] [POC] | Avg. POC [3] [POC] | Avg. POC [4] [POC] | Avg. POC [5] [POC] | Avg. POC [6] [POC] | Avg. POC [7] [POC] | Avg. POC [8] [POC] | Avg. POC [9] [POC] | Avg. POC [10] [POC] | Avg. POC [11] [POC] | Avg. POC [12] [POC] | Avg. POC [13] [POC] | Avg. POC [14] [POC] | Avg. POC [15] [POC] | Avg. POC [16] [POC] | Avg. POC [17] [POC] | Avg. POC [18] [POC] | Avg. POC [19] [POC] | Avg. POC [20] [POC] | other results
1 | Cc1c(-c2ccc(=O)n(C)c2)nn(-c2ccccc2)c1NC(=O)NC1CN(CC(F)(F)F)Cc2ccccc21 (centres unmarked) [Example 26, 1-(4-methyl-3-(1-methyl-6-oxo-1,6-dihydropyridin-3-yl)-1-phenyl-1H-pyrazol-5-yl)-3-(2-(2,2,2-trifluoroethyl)-1,2,3,4-tetrahydroisoquinolin-4-yl)urea] | 131 | 105.5 | 118 | 97 | 107 | 114.5 | 97 | 112 | 96 | 124.5 | 98 | 82.5 | 110.5 | 134.5 | 112 | 108.5 | 102.5 | 114 | 108.5 | 99.5 | Avg. POC [21]: 99.5 POC; Avg. POC [22]: 116 POC; Avg. POC [23]: 105 POC; Avg. POC [24]: 98 POC; Avg. POC [25]: 99 POC; Avg. POC [26]: 98 POC; Avg. POC [27]: 106.5 POC; Avg. POC [28]: 97.5 POC; Avg. POC [29]: 106.5 POC; Avg. POC [30]: 0.5 POC; Avg. POC [31]: 108 POC; Avg. POC [32]: 104.5 POC; Avg. POC [33]: 118 POC; Avg. POC [34]: 116 POC
2 | COCc1ccc2c(c1)C(NC(=O)Nc1c(C)c(-c3cnn(C)c3)nn1-c1ccccc1)COC2 (centres unmarked) [Example 32, 1-(1′,4-dimethyl-1-phenyl-1H,1′H-[3,4′-bipyrazol]-5-yl)-3-(6-(methoxymethyl)isochroman-4-yl)urea] | 124.5 | 114.5 | 128.5 | 114 | 102.5 | 118 | 87.5 | 110.5 | 102 | 84.5 | 112.5 | 109 | 113.5 | 122.5 | 118 | 105 | 107.5 | 118 | 130.5 | 104.5 | Avg. POC [21]: 108.5 POC; Avg. POC [22]: 90 POC; Avg. POC [23]: 99 POC; Avg. POC [24]: 111.5 POC; Avg. POC [25]: 104 POC; Avg. POC [26]: 84 POC; Avg. POC [27]: 97.5 POC; Avg. POC [28]: 119 POC; Avg. POC [29]: 121 POC; Avg. POC [30]: 0 POC; Avg. POC [31]: 108.5 POC; Avg. POC [32]: 96.5 POC; Avg. POC [33]: 116.5 POC; Avg. POC [34]: 110.5 POC
